PubChem BioAssay AID1845213 (Molecular Pharmacology Branch, DTP, NCI, 2023)
Activity calls are given as the source filed them. How the source made its calls: active means viability on the fitted dose curve at most 10% of control; inactive means the rest.

System: NCI-H841 complex tumor spheroid viability
Assay: Anticancer human tumor NCI-H841 cell line growth inhibition;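 on IC50: spheroids exposed to compounds for 7 days before readout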;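 on viability, T/C: spheroids exposed to compounds for 7 days before readout; 100% = DMSO vehicle control wells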
Conditions: for IC50: curve of first compound; for viability, T/C: stronger effect = lower value
In short: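 Complex spheroids of malignant cells with endothelial cells and mesenchymal stem cells; agents alone or combined, from near clinical Cmax (or 10 microM if unknown) down in half-log steps, 0.25% DMSO final.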

[1] = second compound 1 µM, first compound 0.00949 µM
[2] = second compound 1 µM, first compound 0.03 µM
[3] = second compound 1 µM, first compound 0.0949 µM
[4] = second compound 1 µM, first compound 0.3 µM
[5] = second compound 1 µM, first compound 0.949 µM
[6] = second compound 1 µM, first compound 3 µM
[7] = second compound 3.16 µM, first compound 0.00949 µM
[8] = second compound 3.16 µM, first compound 0.03 µM
[9] = second compound 3.16 µM, first compound 0.0949 µM
[10] = second compound 3.16 µM, first compound 0.3 µM
[11] = second compound 3.16 µM, first compound 0.949 µM
[12] = second compound 3.16 µM, first compound 3 µM
[13] = second compound 10 µM, first compound 0.00949 µM
[14] = second compound 10 µM, first compound 0.03 µM
[15] = second compound 10 µM, first compound 0.0949 µM
[16] = second compound 10 µM, first compound 0.3 µM
[17] = second compound 10 µM, first compound 0.949 µM
[18] = second compound 10 µM, first compound 3 µM
[19] = second compound 31.6 µM, first compound 0.00949 µM
[20] = second compound 31.6 µM, first compound 0.03 µM
[21] = second compound 31.6 µM, first compound 0.0949 µM
[22] = second compound 31.6 µM, first compound 0.3 µM
[23] = second compound 31.6 µM, first compound 0.949 µM
[24] = second compound 31.6 µM, first compound 3 µM
[25] = second compound 100 µM, first compound 0.00949 µM
[26] = second compound 100 µM, first compound 0.03 µM
[27] = second compound 100 µM, first compound 0.0949 µM
[28] = second compound 100 µM, first compound 0.3 µM
[29] = second compound 100 µM, first compound 0.949 µM
[30] = second compound 100 µM, first compound 3 µM

| SMILES | IC50 (second compound 1 µM) | IC50 (second compound 3.16 µM) | IC50 (second compound 10 µM) | IC50 (second compound 31.6 µM) | IC50 (second compound 100 µM) | viability, T/C [3] | viability, T/C [4] | viability, T/C [5] | viability, T/C [9] | viability, T/C [10] | viability, T/C [11] | viability, T/C [12] | viability, T/C [17] | viability, T/C [18] | viability, T/C [22] | viability, T/C [23] | viability, T/C [24] | viability, T/C [27] | viability, T/C [28] | viability, T/C [29] | also measured |
| --- | --- | --- | --- | --- | --- | --- | --- | --- | --- | --- | --- | --- | --- | --- | --- | --- | --- | --- | --- | --- | --- |
| CNCc1ccc(-c2cc(-c3nc(-c4ccc(S(=O)(=O)C(C)C)cc4)cnc3N)on2)cc1 + Cn1nnc2c(C(N)=O)ncn2c1=O | 63 nM | 63.5 nM | 177 nM | 88 nM | 49.8 nM | 25.5% | 33.9% | 4.57% | 33% | 21.8% | 3.41% | 0.87% | 2.29% | 5.12% | 17.2% | 1.91% | 7.45% | 58.3% | 5.09% | 8.18% | viability, T/C [1]: 96.3%; viability, T/C [2]: 94.5%; viability, T/C [6]: 1.05%; viability, T/C [7]: 97.7%; viability, T/C [8]: 74.5%; viability, T/C [13]: 101%; viability, T/C [14]: 99.2%; viability, T/C [15]: 89.8%; viability, T/C [16]: 16.2%; viability, T/C [19]: 97.5%; viability, T/C [20]: 96.3%; viability, T/C [21]: 45%; viability, T/C [25]: 92.9%; viability, T/C [26]: 48%; viability, T/C [30]: 0.32% |
| Cc1sc2c(c1C)C(c1ccc(Cl)cc1)=NC(CC(=O)Nc1ccc(O)cc1)c1nnc(C)n1-2 (stereo not given) + Cn1nnc2c(C(N)=O)ncn2c1=O | 375 nM | 409 nM | 384 nM | 361 nM | 267 nM | 74.8% | 59.8% | 24.3% | 88.9% | 59.1% | 24.7% | 5.5% | 14.4% | 4.47% | 57.3% | 12.6% | 2.27% | 82.6% | 49% | 5.34% | viability, T/C [1]: 98.5%; viability, T/C [2]: 101%; viability, T/C [6]: 6.54%; viability, T/C [7]: 105%; viability, T/C [8]: 98%; viability, T/C [13]: 102%; outcome [14]: inactive; viability, T/C [15]: 87.8%; viability, T/C [16]: 61.5%; viability, T/C [19]: 102%; viability, T/C [20]: 98.2%; outcome [21]: inactive; viability, T/C [25]: 101%; viability, T/C [26]: 99.8%; viability, T/C [30]: 1.69% |
| Cn1ncnc1[C@H]1c2n[nH]c(=O)c3cc(F)cc(c23)N[C@@H]1c1ccc(F)cc1 + Cn1nnc2c(C(N)=O)ncn2c1=O | 369 nM | 18.6 nM | < 9.49 nM | < 9.49 nM | < 9.49 nM | 78.1% | 60.3% | 4.54% | 42.8% | 42.2% | 6.61% | 5.73% | 6.05% | 2.46% | 2.41% | 2.88% | 3.21% | 3.16% | 3.31% | 8.92% | viability, T/C [1]: 89.2%; viability, T/C [2]: 86.4%; viability, T/C [6]: 2.08%; viability, T/C [7]: 90.5%; viability, T/C [8]: 9.92%; viability, T/C [13]: 25.7%; viability, T/C [14]: 54.8%; viability, T/C [15]: 9.14%; viability, T/C [16]: 11.2%; viability, T/C [19]: 13.9%; viability, T/C [20]: 6.84%; viability, T/C [21]: 3.57%; viability, T/C [25]: 3.08%; viability, T/C [26]: 2.93%; viability, T/C [30]: 3.58% |
| O=C(c1cc(Cc2n[nH]c(=O)c3ccccc23)ccc1F)N1CCN(C(=O)C2CC2)CC1 + Cn1nnc2c(C(N)=O)ncn2c1=O | 5820 nM | 4960 nM | 131 nM | 490 nM | < 94.9 nM | 96.6% | 99.7% | 87.6% | 104% | 99.6% | 95.3% | 77.5% | 45.5% | 9.01% | 83.1% | 4.8% | 9.51% | 17.8% | 15% | 4.23% | outcome [6]: inactive; viability, T/C (second compound 1 µM, first compound 9.49 µM): 36.1%; viability, T/C (second compound 1 µM, first compound 30 µM): 7.71%; viability, T/C (second compound 3.16 µM, first compound 9.49 µM): 14.7%; viability, T/C (second compound 3.16 µM, first compound 30 µM): 7.81%; outcome [15]: inactive; outcome [16]: inactive; viability, T/C (second compound 10 µM, first compound 9.49 µM): 6.29%; viability, T/C (second compound 10 µM, first compound 30 µM): 3.58%; viability, T/C [21]: 90.2%; viability, T/C (second compound 31.6 µM, first compound 9.49 µM): 3.15%; viability, T/C (second compound 31.6 µM, first compound 30 µM): 4.15%; viability, T/C [30]: 5.1%; viability, T/C (second compound 100 µM, first compound 9.49 µM): 3.82%; viability, T/C (second compound 100 µM, first compound 30 µM): 5.19% |
